Laboratory results reported in PubChem BioAssay AID1745844 (Carcinogenic Potency Database (CPDB), 2022).
Calls of active or inactive are those of the source. No rule for the calls is given here.

Tested on: rodent lifetime carcinogenesis bioassay, tumor incidence TD50
Experiment: carcinogenic potency in animals, long-term in vivo studies, CPDB compilation (AID 1745844)
[1] = mouse, strain B6C3F1, females, in feed, site: any site (literature study), lesion: several types, types named in the paper, dosed 103 weeks, study length 104 weeks
[2] = mouse, strain B6C3F1, females, in feed, site: liver, lesion: hepatocellular adenoma + hepatocellular carcinoma + neoplastic nodule, dosed 103 weeks, study length 104 weeks
[3] = mouse, strain B6C3F1, females, in feed, site: lung, lesion: alveolar/bronchiolar adenoma + alveolar/bronchiolar carcinoma, dosed 103 weeks, study length 104 weeks
[4] = mouse, strain B6C3F1, males, in feed, site: any site (literature study), lesion: several types, types named in the paper, dosed 103 weeks, study length 104 weeks

## CC(=O)[O-].CC(=O)[O-].[Cd+2]
mouse, strain Charles River CD1, females, in drinking water, site: any site (literature study), lesion: one or several types, types not named, dosed 130 weeks, study length 130 weeks
  carcinogen call: negative (inactive)
mouse, strain Charles River CD1, females, in drinking water, site: lung, lesion: carcinoma, dosed 130 weeks, study length 130 weeks
  carcinogen call: negative (inactive)
mouse, strain Charles River CD1, males, in drinking water, site: any site (literature study), lesion: one or several types, types not named, dosed 120 weeks, study length 120 weeks
  carcinogen call: negative (inactive)
mouse, strain Charles River CD1, males, in drinking water, site: lung, lesion: carcinoma, dosed 120 weeks, study length 120 weeks
  carcinogen call: negative (inactive)
rat, strain Long-Evans BLU:(LE), both sexes, in drinking water, site: any site (literature study), lesion: malignant tumor, dosed 175 weeks, study length 175 weeks
  TD50: 5.1 mg/kg/day (inactive)
rat, strain Long-Evans BLU:(LE), both sexes, in drinking water, site: any site (literature study), lesion: one or several types, types not named, dosed 175 weeks, study length 175 weeks
  TD50: 1.81 mg/kg/day (inactive)
rat, strain Long-Evans BLU:(LE), both sexes, in drinking water, site: liver, lesion: one or several types, types not named, dosed 175 weeks, study length 175 weeks
  TD50: 37.7 mg/kg/day (inactive)

## Nc1ccc(N)cc1
[1]
  TD50: 1500 mg/kg/day (inactive)
[2]
  TD50: 1370 mg/kg/day
[3]
  TD50: 1390 mg/kg/day
[4]
  carcinogen call: negative (inactive)
rat, strain Fischer 344, females, in feed, site: adrenal gland, lesion: pheochromocytoma, dosed 80 weeks, study length 80 weeks
  TD50: 4280 mg/kg/day (inactive)
rat, strain Fischer 344, females, in feed, site: any site (literature study), lesion: several types, types named in the paper, dosed 103 weeks, study length 116 weeks
  TD50: 247 mg/kg/day (inactive)
rat, strain Fischer 344, males, in feed, site: adrenal gland, lesion: pheochromocytoma, dosed 80 weeks, study length 80 weeks
  carcinogen call: negative (inactive)
rat, strain Fischer 344, males, in feed, site: any site (literature study), lesion: several types, types named in the paper, dosed 103 weeks, study length 116 weeks
  carcinogen call: negative (inactive)
rat, strain Fischer 344, males, in feed, site: liver, lesion: hepatocellular adenoma + hepatocellular carcinoma + neoplastic nodule, dosed 103 weeks, study length 116 weeks
  TD50: 2230 mg/kg/day

## Oc1ccc(O)cc1
mouse, strain B6C3F1, females, by gavage, site: liver, lesion: hepatocellular adenoma + hepatocellular carcinoma + neoplastic nodule, dosed 103 weeks, study length 105 weeks
  TD50: 122 mg/kg/day
mouse, strain B6C3F1, females, by gavage, site: liver, lesion: hepatocellular adenoma + hepatocellular carcinoma, dosed 103 weeks, study length 105 weeks
  TD50: 122 mg/kg/day
mouse, strain B6C3F1, females, by gavage, site: liver, lesion: hepatocellular adenoma, dosed 103 weeks, study length 105 weeks
  TD50: 65 mg/kg/day
mouse, strain B6C3F1, females, by gavage, site: lung, lesion: alveolar/bronchiolar adenoma + alveolar/bronchiolar carcinoma, dosed 103 weeks, study length 105 weeks
  TD50: 19200 mg/kg/day
mouse, strain B6C3F1, females, in feed, site: liver, lesion: hepatocellular adenoma, dosed 96 weeks, study length 96 weeks
  TD50: 17900 mg/kg/day
mouse, strain B6C3F1, males, by gavage, site: any site (literature study), lesion: several types, types named in the paper, dosed 103 weeks, study length 104 weeks
  TD50: 497 mg/kg/day (inactive)
mouse, strain B6C3F1, males, by gavage, site: liver, lesion: hepatocellular adenoma + hepatocellular carcinoma + neoplastic nodule, dosed 103 weeks, study length 104 weeks
  TD50: 383 mg/kg/day
mouse, strain B6C3F1, males, in feed, site: kidney, lesion: adenoma, dosed 96 weeks, study length 96 weeks
  TD50: 5320 mg/kg/day
mouse, strain B6C3F1, males, in feed, site: liver, lesion: hepatocellular adenoma, dosed 96 weeks, study length 96 weeks
  TD50: 1450 mg/kg/day
rat, strain F344/DuCrj, females, in feed, site: liver, lesion: hepatocellular carcinoma, dosed 104 weeks, study length 104 weeks
  TD50: 8080 mg/kg/day
rat, strain F344/DuCrj, males, in feed, site: kidney, lesion: adenoma, dosed 104 weeks, study length 104 weeks
  TD50: 349 mg/kg/day
rat, strain Fischer 344, females, by gavage, site: all sites, lesion: mononuclear-cell leukemia, dosed 103 weeks, study length 104 weeks
  TD50: 55.8 mg/kg/day
rat, strain Fischer 344, females, by gavage, site: any site (literature study), lesion: several types, types named in the paper, dosed 103 weeks, study length 104 weeks
  TD50: 51.6 mg/kg/day
rat, strain Fischer 344, males, by gavage, site: adrenal medulla, lesion: pheochromocytoma benign, bilateral + pheochromocytoma, benign, dosed 103 weeks, study length 104 weeks
  TD50: 48.2 mg/kg/day
rat, strain Fischer 344, males, by gavage, site: adrenal medulla, lesion: pheochromocytoma benign, bilateral + pheochromocytoma, malignant + pheochromocytoma, benign, dosed 103 weeks, study length 104 weeks
  TD50: 40.4 mg/kg/day
rat, strain Fischer 344, males, by gavage, site: any site (literature study), lesion: several types, types named in the paper, dosed 103 weeks, study length 104 weeks
  TD50: 41.8 mg/kg/day
rat, strain Fischer 344, males, by gavage, site: kidney, lesion: tubule adenoma, dosed 103 weeks, study length 104 weeks
  TD50: 64.7 mg/kg/day
rat, strain Fischer 344, males, by gavage, site: liver, lesion: hepatocellular adenoma + hepatocellular carcinoma + neoplastic nodule, dosed 103 weeks, study length 104 weeks
  TD50: 5710 mg/kg/day

## CNC[C@H](O)c1cccc(O)c1
[1]
  TD50: 911 mg/kg/day (inactive)
[2]
  TD50: 7850 mg/kg/day
[3]
  TD50: 1610 mg/kg/day
[4]
  TD50: 6330 mg/kg/day
mouse, strain B6C3F1, males, in feed, site: liver, lesion: hepatocellular adenoma + hepatocellular carcinoma + neoplastic nodule, dosed 103 weeks, study length 104 weeks
  TD50: 4270 mg/kg/day
mouse, strain B6C3F1, males, in feed, site: lung, lesion: alveolar/bronchiolar adenoma + alveolar/bronchiolar carcinoma, dosed 103 weeks, study length 104 weeks
  TD50: 2130 mg/kg/day
mouse, strain B6C3F1, males, in feed, site: multiple organs + spleen, lesion: malignant lymphoma, mixed type, dosed 103 weeks, study length 104 weeks
  TD50: 1720 mg/kg/day
mouse, strain B6C3F1, males, in feed, site: subcutaneous tissue, lesion: fibrosarcoma, dosed 103 weeks, study length 104 weeks
  TD50: 1640 mg/kg/day (inactive)
rat, strain Fischer 344, females, in feed, site: any site (literature study), lesion: several types, types named in the paper, dosed 103 weeks, study length 104 weeks
  TD50: 272 mg/kg/day (inactive)
rat, strain Fischer 344, males, in feed, site: any site (literature study), lesion: several types, types named in the paper, dosed 103 weeks, study length 104 weeks
  carcinogen call: negative (inactive)

## CCOC(=O)[C@H](CCc1ccccc1)N[C@@H](C)C(=O)N1Cc2ccccc2C[C@H]1C(=O)O
mouse, strain B6C3F1, females, by gavage, site: any site (literature study), lesion: several types, types named in the paper, dosed 104 weeks, study length 104 weeks
  TD50: 8160 mg/kg/day (inactive)
mouse, strain B6C3F1, females, by gavage, site: liver, lesion: hepatocellular adenoma, dosed 104 weeks, study length 104 weeks
  carcinogen call: negative (inactive)
mouse, strain B6C3F1, females, by gavage, site: liver, lesion: hepatocellular carcinoma, dosed 104 weeks, study length 104 weeks
  TD50: 966 mg/kg/day (inactive)
mouse, strain B6C3F1, females, by gavage, site: lung, lesion: adenoma, dosed 104 weeks, study length 104 weeks
  TD50: 5070 mg/kg/day (inactive)
mouse, strain B6C3F1, females, by gavage, site: pituitary gland, lesion: adenoma, dosed 104 weeks, study length 104 weeks
  TD50: 128 mg/kg/day (inactive)
mouse, strain B6C3F1, males, by gavage, site: any site (literature study), lesion: several types, types named in the paper, dosed 104 weeks, study length 104 weeks
  TD50: 221 mg/kg/day (inactive)
mouse, strain B6C3F1, males, by gavage, site: liver, lesion: hepatocellular adenoma, dosed 104 weeks, study length 104 weeks
  TD50: 623 mg/kg/day (inactive)
mouse, strain B6C3F1, males, by gavage, site: liver, lesion: hepatocellular carcinoma, dosed 104 weeks, study length 104 weeks
  TD50: 1640 mg/kg/day (inactive)
mouse, strain B6C3F1, males, by gavage, site: lung, lesion: adenoma, dosed 104 weeks, study length 104 weeks
  TD50: 2790 mg/kg/day (inactive)
mouse, strain B6C3F1, males, by gavage, site: lung, lesion: carcinoma, dosed 104 weeks, study length 104 weeks
  TD50: 2810 mg/kg/day (inactive)
rat, strain Wistar, females, by gavage, site: any site (literature study), lesion: several types, types named in the paper, dosed 104 weeks, study length 104 weeks
  carcinogen call: negative (inactive)
rat, strain Wistar, females, by gavage, site: liver, lesion: several types, types named in the paper, dosed 104 weeks, study length 104 weeks
  carcinogen call: negative (inactive)
rat, strain Wistar, males, by gavage, site: any site (literature study), lesion: several types, types named in the paper, dosed 104 weeks, study length 104 weeks
  carcinogen call: negative (inactive)
rat, strain Wistar, males, by gavage, site: liver, lesion: several types, types named in the paper, dosed 104 weeks, study length 104 weeks
  carcinogen call: negative (inactive)

## NC(=O)Cc1cccc2ccccc12
mouse, strain B6AKF1, females, oral dosing, site: any site (literature study), lesion: several types, types named in the paper, dosed 76 weeks, study length 76 weeks
  TD50: 956 mg/kg/day (inactive)
mouse, strain B6AKF1, females, oral dosing, site: liver, lesion: hepatoma, dosed 76 weeks, study length 76 weeks
  carcinogen call: negative (inactive)
mouse, strain B6AKF1, females, oral dosing, site: lung, lesion: adenoma, dosed 76 weeks, study length 76 weeks
  carcinogen call: negative (inactive)
mouse, strain B6AKF1, males, oral dosing, site: any site (literature study), lesion: several types, types named in the paper, dosed 76 weeks, study length 76 weeks
  carcinogen call: negative (inactive)
mouse, strain B6AKF1, males, oral dosing, site: liver, lesion: hepatoma, dosed 76 weeks, study length 76 weeks
  carcinogen call: negative (inactive)
mouse, strain B6AKF1, males, oral dosing, site: lung, lesion: adenoma, dosed 76 weeks, study length 76 weeks
  carcinogen call: negative (inactive)
mouse, strain B6C3F1, females, oral dosing, site: any site (literature study), lesion: several types, types named in the paper, dosed 76 weeks, study length 76 weeks
  TD50: 213 mg/kg/day (inactive)
mouse, strain B6C3F1, females, oral dosing, site: liver, lesion: hepatoma, dosed 76 weeks, study length 76 weeks
  TD50: 956 mg/kg/day (inactive)
mouse, strain B6C3F1, females, oral dosing, site: lung, lesion: adenoma, dosed 76 weeks, study length 76 weeks
  TD50: 461 mg/kg/day (inactive)
mouse, strain B6C3F1, males, oral dosing, site: any site (literature study), lesion: several types, types named in the paper, dosed 76 weeks, study length 76 weeks
  TD50: 141 mg/kg/day (inactive)
mouse, strain B6C3F1, males, oral dosing, site: liver, lesion: hepatoma, dosed 76 weeks, study length 76 weeks
  TD50: 316 mg/kg/day (inactive)
mouse, strain B6C3F1, males, oral dosing, site: lung, lesion: adenoma, dosed 76 weeks, study length 76 weeks
  TD50: 1010 mg/kg/day (inactive)

## Cc1cc(Cc2cc(C)cc(C(C)(C)C)c2O)c(O)c(C(C)(C)C)c1
rat, strain Wistar, females, in feed, site: liver, lesion: one or several types, types not named, dosed 52 weeks, study length 52 weeks
  carcinogen call: negative (inactive)
rat, strain Wistar, females, in feed, site: liver, lesion: one or several types, types not named, dosed 78 weeks, study length 78 weeks
  carcinogen call: negative (inactive)
rat, strain Wistar, males, in feed, site: liver, lesion: hepatocellular adenoma, dosed 78 weeks, study length 78 weeks
  carcinogen call: negative (inactive)
rat, strain Wistar, males, in feed, site: liver, lesion: one or several types, types not named, dosed 52 weeks, study length 52 weeks
  carcinogen call: negative (inactive)
rat, strain Wistar, males, in feed, site: testis, lesion: interstitial-cell tumor, dosed 52 weeks, study length 52 weeks
  TD50: 44.5 mg/kg/day (inactive)
rat, strain Wistar, males, in feed, site: testis, lesion: interstitial-cell tumor, dosed 78 weeks, study length 78 weeks
  TD50: 36.6 mg/kg/day (inactive)
